Source: article PMC11729425 (ACS Pharmacology & Translational Science, 2024)

How the values were obtained:
GMC101 worms = assay: Paralysis scoring in amyloid beta expressing GMC101 worms; type: in vivo, Caenorhabditis elegans; settings: GMC101, 1 μM, day 1 of adulthood
Experimental: At least 100 worms per condition were manually scored for paralysis after poking. Results are representative of data obtained from at least two independent experiments. ALT-007 was administered at 1 μM and DMSO was used as a control. GMC101 animals were used and scoring was performed at day 1 of adulthood.

[1] = test system: gastrocnemius muscles of aged mice; assay: RNAseq / gene set enrichment analysis of gastrocnemius muscle of aged mice; type: in vivo, C57BL/6JRj mice
Experimental: Figure 3 ALT-007 preserves muscle mass and rewires skeletal muscle gene expression during aging. (A) Lean mass measured by echoMRI after 11 weeks of treatment (ALT-007:1 mg/kg; DMSO: equivalent volume, for 20 weeks). (B) Gastrocnemius and (C) Tibialis anterior muscle weight after 20 weeks of treatment. N = 12 per group. (D) Total ceramide levels measured in the gastrocnemius muscle. (E) Volcano plot of mitochondrial, proteostasis, amino acids, biosynthetic processes, and neuronal-related gene sets highlighted. (F,G) Gene set enrichment analysis (GSEA) of (F) pathways involved in protein folding and degradation and (G) neurogenesis pathways in the skeletal muscle of mice treated with ALT-007 (N = 5 in DMSO and N = 4 in ALT-007-treated groups). Adjusted P values in GSEA comparison are indicated as follows: *adjusted P < 0.05; **adjusted P < 0.01; ***adjusted P < 0.001.
RNA seq analysis was performed as previously described. Changes in cell composition were assessed by gene set enrichment analysis (GSEA) with the clusterProfiler package (Yu G. et al., 2012) and the MsigDB v7.5.1 mouse cell type signature set, accessed through the msigdbr package was performed. Only the gene sets relevant to skeletal muscle and neuronal cell types were retained.
1.2. Supplementary Figure 2
Gene set enrichment analysis using the MsigDB mouse cell type signature sets. Only the gene sets relevant to skeletal muscle and neuronal cell types were retained.
GSEA was performed with the cluserProfiler package and gene sets were accessed through the MsigDBr package.
(1 picture or pasted object on this page, not shown here)

[2] = test system: ceramide levels in the gastrocnemius muscle; assay: Ceramide levels in gastrocnemius muscle after 10 days of treatment; type: in vivo, mice; settings: 4 mg/kg/d in the food
Experimental: (A) Schematic representation of the de novo sphingolipid synthesis pathway. (B) Chemical structures of myriocin (MYR) and ALT-007. (C) Heatmap analysis comparing the effects of treatments with the indicated concentrations of MYR and ALT-007 on lipid species in C2C12 cells. N = 3 per group. Data are shown as log2 fold change. (D) Body weight curves of mice treated with ALT-007 or vehicle (4 mg/kg/d for 10 days, in the food). (E) Mean food consumption measurement throughout the treatment. (F) Plasma levels of aspartate transaminase (AST), (G) alanine transaminase (ALT) and (H) creatine kinase (CK) after 10 days of treatment with ALT-007 at 4 mg/kg/day. (I) Ceramide levels measured in the gastrocnemius muscle after 10 days of treatment. N = 8 per group. Quantitative data are expressed as median with min to max values. *P < 0.05, **P < 0.01, ***P < 0.001. […]
ESI source conditions were used as follows: dry gas temperature, 230 °C; nebulizer, 35 psi and flow rate of 14 L min^–1; sheath gas temperature, 400 °C and flow rate of 12 L min^–1; nozzle voltage, 500 V; and capillary voltage, 4000 V. Dynamic multiple reaction monitoring was used as the acquisition mode with a total cycle time of 500 ms. […] Raw LC–MS/MS data were processed applying Agilent Quantitative Analysis software (version B.07.00, MassHunter Agilent Technologies). […]

[3] = gastrocnemius of aged mice, ALT-007 vs DMSO

## COc1cc(C(=O)N2CC[C@H](NC(=O)c3ccccc3OC(F)(F)F)c3c2cnn3C(C)C)cnc1OC [ALT-007]
GMC101 worms
  paralysis induced by amyloid beta aggregation: reduce paralysis
[1]; [3]
  neurogenesis pathways in the muscle, GSEA: remarkable upregulation of neurogenesis pathways
  proteostasis pathways (protein folding and degradation), GSEA: enrichment of several proteostasis pathways
  ribosomal and translation pathways, GSEA: significantly attenuated
[1]; old treated vs old untreated mice
  neuronal cells in the skeletal muscles (GSEA, MsigDB mouse cell type signature sets): increases neuronal cells
[2]
  ceramide levels in the gastrocnemius muscle: effectively decreased ceramide levels with a stronger effect on very long-chain (VLC) species
